Reference: US12261337B2, “Aqueous electrolyte, redox flow battery and use thereof” (priority 2018, dated 2025)

Key:
[1] = cited from earlier work
[2] = oxidized using Oxone; storage at 60° C., also in the absence of air; after three days

Compound	solubility in organic solvents ([1]; organic solvents)	solubility in water ([1]; water)	stability of the charged molecule / charged electrolytes after storage [2]
C1=C[CH]([Fe][CH]2C=CC=C2)C=C1 [Ferrocene, bis(η^5-cyclopentadienyl)iron(II)]	readily soluble	sparingly soluble	–
ferrocene-bis-sulfonic acid [Example 1]	–	–	irreversible precipitate
